The test system of one assay is S. aureus ATCC 27660. Briefly: NCCLS broth microdilution MIC. The following applies: Col. A = S. aureus ATCC 27660 (MRSA). The assay is classed as cell-based, Staphylococcus aureus. The text has this: (§1) In vitro antibacterial activity data were collected for the following Gram-positive bacteria: Staphylococcus aureus (ATCC 27660, ATCC 33591 and ATCC 43300, all methicillin resistant strains (MRSA's)); Streptococcus pneumoniae (ATCC 51422, a penicillin resistant strain (PRSP)), Enterococcus faecium (ATCC 51559, and/or a vancomycin resistant strain (VRE)). Additionally, antifungal activity data were collected for Candida albicans (ATCC 38247). Minimal inhibition concentrations (MIC's) were determined using the National Committee for Clinical Laboratory Standards (NCCLS) broth microdilution assay in microtiter plates, as set forth in: (1) the guidelines of the National Committee for Clinical Laboratory Standards (NCCLS) Document M7-A4 (NCCLS, 1997); (2) the guidelines of the National Committee for Clinical Laboratory Standards (NCCLS) Document M11-A4 (NCCLS, 1997); and (3) the guidelines and reference method of the National Committee for Clinical Laboratory Standards (NCCLS) Document M27-T (NCCLS, 1995). For antifungal essays, the method recommended in Murray, PR., 1995 Manual of Clinical Microbiology (ASM Press, Washington, D.C.), was employed.

Assay [1] has as its system Candida albicans ATCC 38247. Briefly: Antifungal MIC. In kind it is cell-based. The conditions noted are these: Col. F = C. albicans ATCC 38247.
Description: as §1

Assay [2] concerns the target target sequence AATTAATCAT (352 bp fragment, Plasmid C). Briefly: Quantitative DNase I footprint titration. The assay is classed as binding. The conditions noted are these: 352 bp C, 22° C., pH 7.0, read-out: Dissociation Constant Kd. From the text: (§2) Compounds (1) through (20) according to this invention were screened for their ability to bind to specified DNA target sequences, using DNase I footprinting. Generally, the procedure described in Dervan, WO 98/50582 (1998), was followed.
(§3) Three double stranded circular plasmids A, B, and C were used to prepare double stranded DNA-binding probes containing the target sequences for the DNase I footprint titration experiments. Plasmids A, B, and C had nucleotide sequences given by SEQ ID NO. I, SEQ ID NO. II, and SEQ ID NO. III, respectively.
(§4) The 3′-P32 end-labeled EcoRI/PvuII fragments from each plasmid were prepared by digesting the plasmids with EcoRI and PvuII with simultaneous fill-in using Sequenase v. 2.0, [alpha-P32]-deoxyadenosine-5′-triphosphate, and [alpha-P32]-thymidine-5′-triphosphate, and isolating the cloned fragments by nondenaturing gel electrophoresis. A and G sequencing reactions were carried out as described (See Maxam and Gilbert, Methods Enzymol., 1980, 65, 499-560; Iverson and Dervan, Methods Enzymol., 1987, 15, 7823-7830; Sambrook et al., 1989, Molecular Cloning, 2nd ed., Cold Spring Harbor Laboratory Press: Cold Spring Harbor, N.Y.) Standard methods were used for all DNA manipulations (Sambrook et al., ibid.) The cut sites for EcoRI and PvuII are indicated by bars in the respective maps of Plasmids A, B, and C in FIGS. 5, 6, and 7.
(§5) The 351 base pair dsDNA restriction fragment (SEQ ID NO. IV) of Plasmid A contained the target sequences AAAAAGCAAAAA, AAAAAGACAAAAA, and AAAAAGTACAAAAA. The 310 base pair dsDNA restriction fragment (SEQ ID NO. V) of Plasmid B contained the target sequences AGTACT, AATACT, and ATTACT. The 352 base pair dsDNA restriction fragment (SEQ ID NO. VI) of Plasmid C contained the target sequences TGACAATTAAT, GACAATTAATCA, AATTAATCAT, ACAATTA, and ACAATTAAT. These fragments were used for quantitative DNase I footprinting experiments. Compounds used in the method of this invention bind to at least one of the target sites with a equal to or less than 100 nM, preferably equal to or less than 50 nM, and more preferably equal to or less than 20 nM. The target sequences were selected for the identity with, or similarity to, promoter sites for bacterial genes.
(§6) Quantitative DNase I footprint titration experiments were carried out as described previously (Dervan, WO 98/50582, 1998) with the following changes. All reactions were carried out in a total volume of 400 μL, with compound stock solution or water added to 15,000 cpm radiolabeled restriction fragment affording final solution conditions of 10 mM Tris HCl, 10 mM KCl, 10 mM MgCl2, 5 mM CaCl2, pH 7.0 and 0.01 nM, 0.1 nM, 1.0 nM, 10.0 nM compound or no compound for reference lanes. The compounds were allowed to equilbrate at 22° C. for 16 h. Footprinting reactions were initiated with addition of 10 μL of a DNase I stock solution (at the appropriate concentration to give ˜50% intact DNA) containing 1 mM DTT and allowed to proceed for 7 min at 22° C. The reactions were stopped, ethanol precipitated, resuspended in loading buffer, heat denatured, and placed on ice as described previously (Dervan WO 98/50582, 1998). The reaction products were separated on a precast 8% polyacrylamide denaturing sequencing Castaway gel with 32 preformed wells from Stratagene in 1×TBE at 2000 V. Gels were dried according to the manufacturer and exposed to a storage phosphor screen (Molecular Dynamics). Quantitation and data analysis were carried out as described in Dervan, WO 98/50582, 1998.

The target in assay [3] is target sequence ATTACT (310 bp fragment, Plasmid B). Briefly: Quantitative DNase I footprint titration. In kind it is binding. The following applies: 310 bp B, 22° C., pH 7.0, read-out: Dissociation Constant Kd.
Description: as §2, §3, §4, §5, §6

In another assay the test system is S. aureus ATCC 33591. Briefly: NCCLS broth microdilution MIC. In kind it is cell-based, Staphylococcus aureus. The following applies: Col. B = S. aureus ATCC 33591 (MRSA).
Description: as §1
On the technique in general: In broth dilution the organism is exposed to a series of concentrations in liquid medium.

In assay [4] the test system is Enterococcus faecium ATCC 51559. The assay is described as follows: NCCLS broth microdilution MIC. The conditions noted are these: Col. D = E. faecium ATCC 51559 (VRE). The assay is classed as cell-based.
Description: as §1

Assay [5] relates to Streptococcus pneumoniae ATCC 51422. The assay is described as follows: NCCLS broth microdilution MIC. In kind it is cell-based. The conditions noted are these: Col. E = S. pneumoniae ATCC 51422 (PRSP).
Description: as §1

Assay [6] addresses target sequence AAAAAGACAAAAA (351 bp fragment, Plasmid A). Briefly: Quantitative DNase I footprint titration. In kind it is binding. The following applies: 351 bp A, 22° C., pH 7.0, read-out: Dissociation Constant Kd.
Description: as §2, §3, §4, §5, §6

The target in assay [7] is target sequence AAAAAGCAAAAA (351 bp fragment, Plasmid A). Briefly: Quantitative DNase I footprint titration. In kind it is binding. The following applies: 351 bp A, 22° C., pH 7.0, read-out: Dissociation Constant Kd.
Description: as §2, §3, §4, §5, §6

Assay [8] deals with target sequence TGACAATTAAT (352 bp fragment, Plasmid C). The assay is described as follows: Quantitative DNase I footprint titration. The assay is classed as binding. The following applies: 352 bp C, 22° C., pH 7.0, read-out: Dissociation Constant Kd.
Description: as §2, §3, §4, §5, §6

In assay [9] the target is target sequence AATACT (310 bp fragment, Plasmid B). The assay is described as follows: Quantitative DNase I footprint titration. In kind it is binding. The following applies: 310 bp B, 22° C., pH 7.0, read-out: Dissociation Constant Kd.
Description: as §2, §3, §4, §5, §6

The structures appear in SMILES notation.

The Kd is the free concentration of one partner at which half of the binding sites on the other are occupied at equilibrium, for simple one-to-one binding. Turning to `Cc1cc(NC(=O)c2cc(NC(=O)c3cc(NC(=O)c4nsc(NCCN5CCCCC5)c4Cl)cn3C)cn2C)sn1` [Compound 13], the “Minimum Inhibitory Concentration (MIC)” value in the assay with S. aureus ATCC 27660 was “++ (++ = MIC ≦ 1)”; in assay [1], above 32 µg/mL. Besides, the Kd in assay [2] worked out at 10 nM; in assay [3], 5 nM.

For `CN(C)CCCNC(=O)CCNC(=O)c1cc(NC(=O)c2cc(NC(=O)CCNC(=O)c3cc(NC(=O)c4cc(NC(=O)c5cc(Br)c(Br)s5)cn4C)cn3C)cn2C)cn1C` [Compound 1], the “Minimum Inhibitory Concentration (MIC)” value is “++ (++ = MIC ≦ 1)” with S. aureus ATCC 27660; “+ (+ = MIC ≦ 2)” in the assay with S. aureus ATCC 33591; “− (− = MIC > 2)” in [4]; “++ (++ = MIC ≦ 1)” in [5]; above 32 µg/mL in [1]. In addition, the Kd in assay [6] was 0.01 nM; in assay [7], 0.01 nM; in [8], 2 nM.

Regarding `Cn1cc(NC(=O)c2cc(NC(=O)c3cc(NC(=O)c4ccc(Cl)cc4F)c[nH]3)cn2C)cc1C(=O)NCCN1CCOCC1` [Compound 10], the “Minimum Inhibitory Concentration (MIC)” value in the assay on S. aureus ATCC 27660 was “+ (+ = MIC ≦ 2)”; in the assay on S. aureus ATCC 33591, “− (− = MIC > 2)”; in [4], “+ (+ = MIC ≦ 2)”; in assay [5], “− (− = MIC > 2)”; in assay [1], 8 to 32 µg/mL. The dissociation constant (Kd) in assay [9] came to 5 nM; in assay [2], 1 nM.

These data come from patent US20030199516A1, “Methods of treating infection by drug resistant bacteria” (Genesoft, Inc., priority 2001, published 2003).
